The subject of one assay is Caenorhabditis elegans. The assay is described as follows: Nematicidal activity. It is filed as in vivo. The note with it: 23 °C, 150 rpm. On the procedure:
(§1) The evaluation of antimicrobial efficacy was conducted through a serial dilution method to determine the minimum inhibitory concentrations (MICs) of isolated compounds against various Gram-positive bacteria (Bacillus subtilis (B. subtilis), Mycobacterium smegmatis (M. smegmatis), and Staphylococcus aureus), Gram-negative bacteria (Acinetobacter baumannii (A. baumannii), Chromobacterium violaceum, Escherichia coli, and Pseudomonas aeruginosa (P. aeruginosa)), and five fungal species (Candida albicans, Mucor hiemalis, Rhodotorula glutinis, Schizosaccharomyces pombe, and Wickerhamomyces anomalus), utilizing established methodologies.[16],[20],[23],[24] Methanol served as the negative control with a volume of 20 μL, while the choice of positive controls was tailored to the specific organism under investigation. For bacterial strains, oxytetracycline, ciprofloxacin, kanamycin, and gentamicin were employed as references for B. subtilis, A. baumannii, M. smegmatis, and P. aeruginosa, respectively; nystatin was the standard for all fungi. The cytotoxicity of compounds was assessed on L929 mouse fibroblast cells and KB3.1 human endocervical adenocarcinoma cells using an MTT assay. Epothilone B acted as the positive control in these experiments. Additionally, the nematicidal potential was evaluated using Caenorhabditis elegans in a 48-well flat-bottom plate, with compounds tested at concentrations of 100, 50, and 10 μg mL^–1. Samples were dissolved in methanol and added to the wells and then dried using a nitrogen stream. Subsequently, 300 μL of a suspension containing 1,000 nematodes/mL was added to the samples and incubated for 18 h at 23 °C and 150 rpm. Ivermectin, at a concentration of 1 μg mL^–1, served as the positive control, and methanol was used as the negative control. This assay was executed according to the procedures outlined by Phutthacharoen et al.[23]

In another assay the test system is Escherichia coli. Kind of assay: Antimicrobial activity (MIC), serial dilution. It counts as cell-based. As to the method: as §1, with “The biological activity of isolated compounds (1, 2, 4, and 5) was assessed against different fungi, bacteria, cell lines, Caenorhabditis elegans, and Chikungunya virus. The evaluation” for “The evaluation”
The subject of another assay is Pseudomonas aeruginosa. Kind of assay: Antimicrobial activity (MIC), serial dilution. It counts as cell-based. As to the method: as §1, with “The biological activity of isolated compounds (1, 2, 4, and 5) was assessed against different fungi, bacteria, cell lines, Caenorhabditis elegans, and Chikungunya virus. The evaluation” for “The evaluation”
The subject of assay [1] is Chromobacterium violaceum. Kind of assay: Antimicrobial activity (MIC), serial dilution. It counts as cell-based. As to the method:
as §1, with “The biological activity of isolated compounds (1, 2, 4, and 5) was assessed against different fungi, bacteria, cell lines, Caenorhabditis elegans, and Chikungunya virus. The evaluation” for “The evaluation”

Assay [2] has as its system Schizosaccharomyces pombe. Kind of assay: Antimicrobial activity (MIC), serial dilution. It counts as cell-based. As to the method:
as §1, with “The biological activity of isolated compounds (1, 2, 4, and 5) was assessed against different fungi, bacteria, cell lines, Caenorhabditis elegans, and Chikungunya virus. The evaluation” for “The evaluation”

In another assay the test system is Mucor hiemails. Kind of assay: Antimicrobial activity (MIC), serial dilution. It is filed as cell-based. As to the method:
as §1, with “The biological activity of isolated compounds (1, 2, 4, and 5) was assessed against different fungi, bacteria, cell lines, Caenorhabditis elegans, and Chikungunya virus. The evaluation” for “The evaluation”

The test system of a further assay is Rhodotorula glutinis. Kind of assay: Antimicrobial activity (MIC), serial dilution. It is filed as cell-based. As to the method:
as §1, with “The biological activity of isolated compounds (1, 2, 4, and 5) was assessed against different fungi, bacteria, cell lines, Caenorhabditis elegans, and Chikungunya virus. The evaluation” for “The evaluation”

In another assay the test system is Mycobacterium smegmatis. The assay is described as follows: Antimicrobial activity (MIC), serial dilution. It counts as cell-based. As to the method: as §1, with “The biological activity of isolated compounds (1, 2, 4, and 5) was assessed against different fungi, bacteria, cell lines, Caenorhabditis elegans, and Chikungunya virus. The evaluation” for “The evaluation”

Another assay relates to Pichia anomala. The assay is described as follows: Antimicrobial activity (MIC), serial dilution. It counts as cell-based. On the procedure: as §1, with “The biological activity of isolated compounds (1, 2, 4, and 5) was assessed against different fungi, bacteria, cell lines, Caenorhabditis elegans, and Chikungunya virus. The evaluation” for “The evaluation”
In another assay the test system is Candida albicans. Kind of assay: Antimicrobial activity (MIC), serial dilution. It is filed as cell-based. On the procedure: as §1, with “The biological activity of isolated compounds (1, 2, 4, and 5) was assessed against different fungi, bacteria, cell lines, Caenorhabditis elegans, and Chikungunya virus. The evaluation” for “The evaluation”
The next assay concerns Staphylococcus aureus. Kind of assay: Antimicrobial activity (MIC), serial dilution. It counts as cell-based. On the procedure: as §1, with “The biological activity of isolated compounds (1, 2, 4, and 5) was assessed against different fungi, bacteria, cell lines, Caenorhabditis elegans, and Chikungunya virus. The evaluation” for “The evaluation”
The subject of a further assay is Acinetobacter baumanii. The assay is described as follows: Antimicrobial activity (MIC), serial dilution. It is filed as cell-based. As to the method: as §1
For a further assay, the system named is Bacillus subtilis. Kind of assay: Antimicrobial activity (MIC), serial dilution. It counts as cell-based. As to the method:
as §1

Assay [3] concerns KB3.1 human endocervical adenocarcinoma cells. Kind of assay: Cytotoxicity, MTT assay. The note with it: Human endocervical adenocarcinoma (KB3.1). It counts as cell-based. On the set-up: key: -: No effect on cell lines. As to the method: as §1
Background: Tetrazolium dyes change colour on reduction, which living cells bring about.

Assay [4] deals with L929 mouse fibroblast cells. Kind of assay: Cytotoxicity, MTT assay. It is filed as cell-based. Details: key: -: No effect on cell lines. On the procedure:
as §1

[5] abbreviates: C. elegans N2, 10 µg mL-1, 18 h, < 0: less active than the corresponding negative control.
[6] abbreviates: C. elegans N2, 50 µg mL-1, 18 h, < 0: less active than the corresponding negative control.
The mark [7] stands for this setting: C. elegans N2, 100 µg mL-1, 18 h, < 0: less active than the corresponding negative control.
Where [8] appears, read: read-out: MIC, positive control.

Here are results for 8 compounds from PMC11097168, “Laburnicotides A–F: Acyclic N-Acetyl Oligopeptides from the Nematode-Cyst-Associated Fungus Laburnicola nematophila” (ACS Omega, 2024).

≈ marks a conversion by molar mass, not a printed value. Like-named read-outs stand apart in the source and are kept apart here. Where only a bound is given, the exact number is not on record here.

Ac-D-Trp-D-Leu-D-Ala [Compound 5]: the “Corrected Mortality (%)” value in the assay with Caenorhabditis elegans (setting [5]) is reported as less than 0%; in the assay with Caenorhabditis elegans (setting [6]), 0.5 ± 1.1%; in the assay with Caenorhabditis elegans (setting [7]), less than 0%. The MIC entry (with Escherichia coli; in the assay with Pseudomonas aeruginosa; in assay [1]; in assay [2]; in the assay on Mucor hiemails; in the assay on Rhodotorula glutinis) was “- (No inhibition up to 67 µg/mL)” throughout. The MIC result in the assay with Mycobacterium smegmatis, against Pichia anomala, in the assay on Candida albicans, in the assay on Staphylococcus aureus, against Acinetobacter baumanii and in the assay with Bacillus subtilis was “- (No inhibition up to 67 µg/mL)” throughout. Further, the “Cytotoxicity IC50” value in assay [3] and in assay [4] was “-” throughout.
Regarding Ac-D-Trp-D-Leu-D-Ala-L-Phe [Compound 2], the “Corrected Mortality (%)” value in the assay on Caenorhabditis elegans (setting [5]), with Caenorhabditis elegans (setting [6]) and in the assay with Caenorhabditis elegans (setting [7]) was less than 0% throughout. In addition, the MIC result (in the assay with Escherichia coli; against Pseudomonas aeruginosa; in [1]; in assay [2]; in the assay with Mucor hiemails; in the assay with Rhodotorula glutinis) was “- (No inhibition up to 67 µg/mL)” in each case. Besides, the MIC entry in the assay with Mycobacterium smegmatis, against Pichia anomala, against Candida albicans, in the assay with Staphylococcus aureus, in the assay with Acinetobacter baumanii and in the assay on Bacillus subtilis was “- (No inhibition up to 67 µg/mL)” each time. The “Cytotoxicity IC50” value in assay [3] and in assay [4] was “-” in each case.
As for `CNC(C)C1CCC(N)C(OC2C(N)CC(N)C(OC3OCC(C)(O)C(NC)C3O)C2O)O1` (stereo not drawn) [Gentamycin, reference compound], the MIC in the assay on Escherichia coli (setting [8]) is 0.42 µg/mL (≈ 0.879 µM); in the assay with Pseudomonas aeruginosa (setting [8]), 0.21 µg/mL (≈ 0.44 µM); in assay [1] (setting [8]), 1.7 µg/mL (≈ 3.56 µM); in the assay with Staphylococcus aureus (setting [8]), 0.21 µg/mL (≈ 0.44 µM).
For the compound “Ac-D-Trp-D-Ala^1-D-Ala^2-L-Phe [Compound 4]”, the “Corrected Mortality (%)” value in the assay with Caenorhabditis elegans (setting [5]) is 0.7 ± 2.0%; in the assay on Caenorhabditis elegans (setting [6]), 0.1 ± 2.2%; with Caenorhabditis elegans (setting [7]), less than 0%. The MIC result (against Escherichia coli; in the assay with Pseudomonas aeruginosa; in assay [1]; in assay [2]; in the assay with Mucor hiemails; in the assay with Rhodotorula glutinis) was “- (No inhibition up to 67 µg/mL)” in each case. Besides, the MIC result against Mycobacterium smegmatis, against Pichia anomala, against Candida albicans, against Staphylococcus aureus, in the assay on Acinetobacter baumanii and against Bacillus subtilis was “- (No inhibition up to 67 µg/mL)” each time. Besides, the “Cytotoxicity IC50” value in assay [3] and in assay [4] was “-” throughout.
Regarding Ivermectin [reference compound], the “Corrected Mortality (%)” value in the assay on Caenorhabditis elegans (C. elegans N2, 1 µg mL-1, 18 h) is listed as 96.2 ± 2.7%.
Take `CN(C)[C@@H]1C(O)=C(C(N)=O)C(=O)[C@@]2(O)C(O)=C3C(=O)c4c(O)cccc4[C@@](C)(O)[C@H]3[C@H](O)[C@@H]12` [Oxytetracycline, reference compound]: the minimal inhibitory concentration (MIC) in the assay with Bacillus subtilis (setting [8]) was 16.6 µg/mL (≈ 36.1 µM).
Regarding “Ac-D-Trp-D-Leu^1-D-Leu^2-L-Phe [Compound 1]”, the “Corrected Mortality (%)” value in the assay with Caenorhabditis elegans (setting [5]), with Caenorhabditis elegans (setting [6]) and in the assay on Caenorhabditis elegans (setting [7]) was less than 0% throughout. Besides, the minimum inhibitory concentration (MIC) entry (against Escherichia coli; against Pseudomonas aeruginosa; in assay [1]; in assay [2]; in the assay with Mucor hiemails; against Rhodotorula glutinis) was “- (No inhibition up to 67 µg/mL)” each time. Further, the minimal inhibitory concentration (MIC) result with Mycobacterium smegmatis, in the assay with Pichia anomala, in the assay with Candida albicans, against Staphylococcus aureus, against Acinetobacter baumanii and in the assay on Bacillus subtilis was “- (No inhibition up to 67 µg/mL)” each time. Besides, the “Cytotoxicity IC50” value in assay [3] and in [4] was “-” each time.
For the compound `O=C(O)c1cn(C2CC2)c2cc(N3CCNCC3)c(F)cc2c1=O` [Ciprofloxacin, reference compound], the MIC in the assay with Acinetobacter baumanii (Acinetobacter baumannii, read-out: MIC, positive control) turned out to be 0.52 µg/mL (≈ 1.57 µM).

What is called MIC is the smallest concentration in the dilution series that meets the test's criterion for growth inhibition.
